These results are taken from PMC7000521, “Hazard Characterization of Synthetic Cathinones Using Viability, Monoamine Reuptake, and Neuronal Activity Assays” (Frontiers in Neuroscience, 2020).

Like-named read-outs stand apart in the source and are kept apart here. Where only a bound is given, the exact number is not on record here.

For data set [1] the following is noted: recreational use (driving under the influence or accidental non-fatal intoxications); ref literature; cited from earlier work.
Data set [2] has as its system rat primary cortical cultures. Briefly: MEA recordings of spontaneous neuronal network activity. Type of data set: cell-based. Particulars: acute and prolonged exposure. As to the method: Rat pups born of timed-pregnant Wistar rats (Envigo, Horst, Netherlands) were sacrificed on postnatal day 0–1 to prepare cortical cultures grown on MEA plates as described previously ([Zwartsen et al., 2018], [2019]). Briefly, a 50 μL drop of cell suspension was added to each well (1 × 10^5 cells/well) of a 48-well MEA plate (Axion BioSystems Inc., Atlanta, GA, United States, M768-GL1-30Pt200) coated with 0.1% polyethyleneimine (PEI). After 2 h, 450 μL dissection medium was added to each well. The day after the isolation (day in vitro 1; DIV1), 450 μL/well dissection medium was replaced with 450 μL/well glutamate medium. At DIV4, 450 μL/well glutamate medium was replaced with 450 μL/well FBS medium (for medium supplements see [Zwartsen et al., 2018], [2019]). Cultures were kept in FBS medium at 37°C, 5% CO2/95% air atmosphere until use at DIV9-10.
Microelectrode array recordings were performed as described in [Zwartsen et al. (2019)]. In short, neuronal activity was measured using a Maestro 768-channel amplifier (Axion BioSystems Inc., Atlanta, GA, United States). Baseline spontaneous neuronal activity was recorded for 30 min at 37°C, after which wells were exposed to selected synthetic cathinones under sterile conditions. Next, neuronal activity was determined during a 30 min “acute exposure” recording. […] Next, exposure medium was replaced with fresh FBS medium and the plate was incubated for 19 h at 37°C, until the 30 min “washout” recording, i.e., 24 h after the start of the exposure.
Effects of 3-MMC, 4-MMC, 4-MEC, pentedrone, 3-MMCinternet, and 4-MECinternet were tested at 1–1000 μM (final concentration). At the day of exposure, stocks and dilutions were freshly made in NB-A FBS medium (for medium supplements see [Zwartsen et al., 2019]). Data on methylone, α-PVP, and MDPV exposure have been published previously in [Zwartsen et al. (2019)]. For each experimental condition, primary cultures from two to three different isolations were used and tested in four to five plates (Nplates). The number of wells (nwells) represents the number of replicates per condition.
Microelectrode array data were analyzed as described in [Zwartsen et al. (2019)]. In short, parameters of interest after acute exposure were expressed as a percentage of the parameters prior to exposure to obtain a treatment ratio for each well (paired comparison; parameterexposure/parameterbaseline as % of control wells). The parameters after prolonged exposure and washout were also expressed as a percentage of the baseline parameters. Next, treatment ratios were grouped per parameter, condition, drug [e.g., mean spike rate (MSR) 10 μM 3-MMC] and exposure scenario (acute, prolonged, or washout).
Outliers (>mean ± 2×SD) for MSR (5.0%) were used to exclude wells on all parameters. Outliers for mean burst rate (MBR; 2.6%) and mean network burst rate (MNBR; 1.4%) were used to exclude wells on specific parameters (burst, network burst, and synchronicity parameters, or network burst and synchronicity parameters, respectively). Finally, the acute, prolonged, and washout control treatment ratios were set to 100% and treatment ratios of exposed wells were normalized to the average treatment ratio of medium control wells of the corresponding parameter and exposure scenario. Treatment ratios of exposed wells were averaged per parameter (e.g., MSR), condition (e.g., 100 μM), drug (e.g., methylone), and exposure scenario (e.g., acute exposure) and used for further statistical analyses [see [Zwartsen et al. (2019)] for more details on criteria, parameters, and exposure scenarios]. Neuronal activity (as % of control) is expressed as mean ± SEM of nwells from Nplates. As the spike, burst, and network burst rates were among the most sensitive parameters, these parameters are presented in the manuscript. Additional parameters are presented in Supplementary Figure 2.
Concentration–response curves were made for transporter, MEA, and cell viability assays. […]

For data set [3], the target named is T1, hDAT (Homo sapiens, UniProt Q01959).
T1 construct: expressed in transfected cells
T1 sequence (Q01959 whole entry): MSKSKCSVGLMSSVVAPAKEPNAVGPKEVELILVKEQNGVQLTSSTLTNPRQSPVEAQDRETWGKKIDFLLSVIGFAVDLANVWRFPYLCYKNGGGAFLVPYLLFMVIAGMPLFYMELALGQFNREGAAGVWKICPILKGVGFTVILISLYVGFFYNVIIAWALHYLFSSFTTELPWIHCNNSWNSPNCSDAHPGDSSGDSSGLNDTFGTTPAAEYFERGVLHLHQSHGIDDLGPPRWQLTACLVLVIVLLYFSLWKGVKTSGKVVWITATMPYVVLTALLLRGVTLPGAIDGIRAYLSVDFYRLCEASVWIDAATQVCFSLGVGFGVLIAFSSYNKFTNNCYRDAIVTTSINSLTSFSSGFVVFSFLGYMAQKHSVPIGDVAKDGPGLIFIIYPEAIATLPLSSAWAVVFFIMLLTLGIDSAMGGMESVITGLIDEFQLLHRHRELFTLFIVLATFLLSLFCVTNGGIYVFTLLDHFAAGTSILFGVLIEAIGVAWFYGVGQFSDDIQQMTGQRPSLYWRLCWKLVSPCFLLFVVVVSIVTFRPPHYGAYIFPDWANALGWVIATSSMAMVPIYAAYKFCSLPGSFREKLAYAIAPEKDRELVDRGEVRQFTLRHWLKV
Also noted: method as in Zwartsen et al., 2017. Particulars: read-out: Transporter inhibition IC50, hDAT; HEK 293 cells; value [CI]; reanalyzed from previously published data ref Zwartsen et al., 2017; cited from earlier work.

Data set [4] concerns rat primary cortical cultures. Also noted: method as in Zwartsen et al., 2019. Particulars: value [CI], published previously ref Zwartsen et al., 2019, cited from earlier work.
Data set [5] in a line: Brain partitioning factor (BPF). The following applies: brain concentration divided by blood/serum/plasma concentration from human post mortem reports or animal studies (rat/mice). An excerpt: (§1) To correlate reported effect concentrations to expected concentrations in the human brain during recreational use a brain partitioning factor (BPF; […]) was applied, as actual human brain concentrations following recreational drug use are unknown. Expected concentrations in the human brain were estimated by multiplying recreational human blood/serum/plasma concentrations with the BPF. Human recreational blood, serum, or plasma levels were obtained from literature (driving under the influence or accidental non-fatal intoxications). The BPF was determined for each drug by dividing the brain concentration by the blood/serum/plasma concentration found in human post mortem reports, or animal studies (rat/mice) when human data were insufficient.

Data set [6] can be described thus: Estimated human brain concentrations and comparison with IC50 values. The following applies: recreational human blood/serum/plasma concentration multiplied with BPF.
Text: as §1
To identify the relevance of effects and potentially harmful drugs, effect concentrations (IC50 values) were related to the estimated human brain concentration during recreational use [(brain), Table 2]. By comparing these concentrations, the most relevant neurotoxic mechanisms of cathinones can be identified. […] Only 4-MEC and MDPV inhibited neuronal activity during acute exposure at concentrations within (MDPV) or close to (4-MEC) the estimated brain concentration.

In general, IC50 refers to the concentration that inhibits the measured activity by half. As for `CCCC(C(=O)c1ccccc1)N1CCCC1` (stereo not drawn) [α-PVP, α-pyrrolidinovalerophenone], the “Human (serum/blood/plasma) concentration” value in data set [1] is given as 0.01–2.8^b,j,K μM. Moreover, the “Increased potency to inhibit neuronal activity (MSR, MBR, and MNBR) compared to cathinones lacking the lengthened alkyl chain” value in data set [2] is given as “two to fourfold”. Also, the IC50 in data set [3] is 200 nM; in data set [4] (acute exposure 30 min, read-out: Neuronal activity IC50, mean burst rate (MBR), acute), 33 µM; in data set [4] (acute exposure 30 min, read-out: Neuronal activity IC50, mean network burst rate (MNBR), acute) it was 33 µM; in data set [4] (acute exposure 30 min, read-out: Neuronal activity IC50, mean spike rate (MSR), acute), 26 µM; in data set [4] (washout, 24 h after start of exposure, read-out: Neuronal activity IC50, mean burst rate (MBR), recovery), more than 300 µM; in data set [4] (washout, 24 h after start of exposure, read-out: Neuronal activity IC50, mean network burst rate (MNBR), recovery) it was more than 300 µM. The IC50 in data set [4] (washout, 24 h after start of exposure, read-out: Neuronal activity IC50, mean spike rate (MSR), recovery) is more than 300 µM. Moreover, the “Brain partitioning factor (BPF)” value in data set [5] was 0.1–1.8^4,8,9,10. For the same molecule, the “Estimated human (brain) concentration” value in data set [6] is 0.001 to 5.0 µM.
